Test results taken from patent US20220370406A1, “METHOD OF TREATING STIMULANT USE DISORDER USING A COMBINATION OF TOPIRAMATE AND PHENTERMINE” (University of Kentucky Research Foundation, priority 2019, published 2022).
Like-named read-outs stand apart in the source and are kept apart here.

Assays:
[1] = test system: participants with cocaine use disorder; assay: Experimental sessions: cardiovascular measures after cocaine sampling dose during maintenance; details: maintenance on the drug alone
[2] = test system: participants with cocaine use disorder; assay: Cocaine self-administration on progressive-ratio task during topiramate-phentermine maintenance; format: in vivo, human
Procedure: The maintenance period for each condition was at least seven (7) days. Participants randomized to 50 or 100 mg/day topiramate initially received 12.5 and 25 mg immediate release topiramate, respectively, twice daily (0700 and 1900 hours) for three (3) days. Participants then received their target dose (i.e., 25 and 50 mg BID, respectively) for four (4) days prior to completing the first block of experimental sessions. This dosing regimen allowed participants to acclimate to a lower topiramate dose before receiving their target dose and was the rationale for topiramate being a between-subject variable. Participants randomized to placebo were also maintained for seven (7) days to maintain the study blind, but their capsules contained only cornstarch.
Phentermine (0, 15, 30 mg) was administered once daily at 0700 hours. Within each topiramate cohort, the phentermine doses were tested in ascending order such that the lower dose (15 mg/day) was tested prior to the higher dose (30 mg/day). This dosing sequence was violated twice due to oversight (i.e., one subject in the 0 mg/day topiramate group and the other in the 50 mg/day topiramate group). Both of these participants were initially maintained on 30 mg/day phentermine.
After at least seven (7) days of maintenance on the first topiramate-phentermine condition, participants completed a block of three experimental sessions described below. Maintenance on the assigned condition continued during each block of experimental sessions. Upon completion of the first block of experimental sessions, participants continued maintenance on the assigned topiramate condition, while the phentermine dose was changed to the next condition. Maintenance on the second topiramate-phentermine condition also lasted at least seven (7) days before the next block of experimental sessions was completed. […]
The reinforcing effects of cocaine during maintenance on the topiramate-phentermine combinations were assessed using a progressive-ratio task. […]

[3] = test system: participants with cocaine use disorder; assay: Experimental sessions: subjective effects questionnaires after cocaine sampling dose during maintenance; details: for subjective effects of cocaine: maintenance on the drug alone; for cocaine-increased ratings of High, Like Drug, Active-Alert-Energetic, Rush and Stimulant Subscale: maintenance on topiramate and phentermine, alone or combined
[4] = test system: participants with cocaine use disorder; details: in vivo

Structure (SMILES)	cardiovascular effects of cocaine [1]	cocaine self-administration ([2]; Phentermine alone)	reinforcing effects of cocaine ([2]; maintenance on the drug alone)	subjective effects of cocaine [3]	cocaine-increased ratings of High, Like Drug, Active-Alert-Energetic, Rush and Stimulant Subscale [3]	cardiovascular effects of cocaine [4]	reduction of cocaine self-administration ([2]; cocaine 40 mg, Topiramate alone (100 mg/day)) [%]
CC(C)(N)Cc1ccccc1 [phentermine]	did not significantly alter	did not significantly reduce	did not significantly alter	did not significantly alter	did not significantly alter	–	–
CC1(C)O[C@@H]2[C@@H](CO[C@@]3(COS(N)(=O)=O)OC(C)(C)O[C@@H]23)O1 [topiramate]	–	–	–	did not alter	did not significantly alter	did not alter	47
